Laboratory results published in patent US20100298141A1, “SUBSTITUTED PYRIDINE N-OXIDE HERBICIDES” (E. I. DU PONT DE NEMOURS AND COMPANY, priority 2007, published 2010).

Key:
winter barley = assay: Test C postemergence test; format: in vivo, Hordeum vulgare; settings: for Plant response rating (0 to 100), Barley: 31 g ai/ha; for Plant response rating, Barley: scale 0 to 100, 0 no effect, 100 complete control
Summary of the method: (§1)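 Postemergence sprays of formulated test chemicals on plants 2 to 18 cm tall (1- to 4-leaf stage). Greenhouse hold for 13 to 15 days, then visual rating of each species against untreated controls; dash means no test result.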

chickweed = assay: Test C postemergence test; format: in vivo, Stellaria media; settings: for Plant response rating (0 to 100), Chickweed: 31 g ai/ha; for Plant response rating, Chickweed: scale 0 to 100, 0 no effect, 100 complete control
Summary of the method: as §1

green foxtail = assay: Test F preemergence test; format: in vivo, Setaria viridis; settings: scale 0 to 100
Summary of the method: (§2)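 Test chemicals in a non-phytotoxic solvent mixture containing a surfactant were applied preemergence to sown seeds or postemergence to sugarcane plants. Treated plants and controls were held in a greenhouse for 14 to 21 days, then visually evaluated against controls.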

johnsongrass = assay: Test F preemergence test; format: in vivo, Sorghum halepense; settings: scale 0 to 100
Summary of the method: as §2

pitted morningglory = assay: Test F preemergence test; format: in vivo, Ipomoea lacunosa; settings: scale 0 to 100
Summary of the method: as §2

guineagrass = assay: Test F preemergence test; format: in vivo, Panicum maximum; settings: scale 0 to 100
Summary of the method: as §2

dallisgrass = assay: Test F preemergence test; format: in vivo, Paspalum dilatatum; settings: scale 0 to 100
Summary of the method: as §2

common sowthistle = assay: Test F preemergence test; format: in vivo, Sonchus oleraceous; settings: scale 0 to 100; for Sowthistle plant response rating: 125 g ai/ha
Summary of the method: as §2

prickly sida = assay: Test F preemergence test; format: in vivo, Sida spinosa; settings: scale 0 to 100
Summary of the method: as §2

common purslane = assay: Test F preemergence test; format: in vivo, Portulaca oleracea; settings: scale 0 to 100
Summary of the method: as §2

common groundsel = assay: Test F preemergence test; format: in vivo, Senecio vulgaris; settings: scale 0 to 100
Summary of the method: as §2

Virginia dayflower = assay: Test F preemergence test; format: in vivo, Commelina virginica; settings: 16 g ai/ha, preemergence; scale 0 to 100
Summary of the method: as §2

annual bluegrass = assay: Test F preemergence test; format: in vivo, Poa annua; settings: scale 0 to 100
Summary of the method: as §2

naked crabgrass = assay: Test F preemergence test; format: in vivo, Digitaria nuda; settings: scale 0 to 100
Summary of the method: as §2

itchgrass = assay: Test F preemergence test; format: in vivo, Rottboellia cochinchinensis; settings: scale 0 to 100
Summary of the method: as §2

Canada horseweed = assay: Test F preemergence test; format: in vivo, Conyza canadensis; settings: scale 0 to 100
Summary of the method: as §2

field bindweed = assay: Test F preemergence test; format: in vivo, Convolvulus arvensis; settings: scale 0 to 100
Summary of the method: as §2

spanishneedles = assay: Test F preemergence test; format: in vivo, Bidens bipinnata; settings: scale 0 to 100; for Spanishneedles plant response rating: 125 g ai/ha
Summary of the method: as §2

common mallow = assay: Test F preemergence test; format: in vivo, Malva sylvestris; settings: scale 0 to 100
Summary of the method: as §2

Cn1nc(C(F)(F)F)c(C[S+]([O-])c2ccc(Cl)c[n+]2[O-])c1OCC(F)(F)F (racemic) [Compound 62]
75: Morningglory plant response rating (pitted morningglory; 62 g ai/ha, Preemergence) | Plant response rating, Morningglory (pitted morningglory; Preemergence, 31 g ai/ha) | Prickly Sida plant response rating (prickly sida; 62 g ai/ha, Preemergence) | Purslane plant response rating (common purslane; 125 g ai/ha, preemergence) | Plant response rating, Itchgrass (itchgrass; Preemergence, 31 g ai/ha) | Field Bindweed plant response rating (field bindweed; 62 g ai/ha, Preemergence) | Field Bindweed plant response rating (field bindweed; 125 g ai/ha, preemergence) | Plant response rating, Field Bindweed (field bindweed; Preemergence, 31 g ai/ha) | Plant response rating, Spanishneedles (spanishneedles; Preemergence, 62 g ai/ha)
0: Plant response rating (0 to 100), Barley (winter barley) | Plant response rating, Barley (winter barley; 62 g ai/ha) | Plant response rating (0 to 100), Chickweed (chickweed) | Plant response rating, Chickweed (chickweed; 62 g ai/ha) | Plant response rating, Chickweed (chickweed; 125 g ai/ha) | Plant response rating, Morningglory (pitted morningglory; 16 g ai/ha, preemergence) | Plant response rating, Dallisgrass (dallisgrass; 16 g ai/ha, preemergence) | Plant response rating, Sowthistle (common sowthistle; 16 g ai/ha, preemergence) | Plant response rating, Groundsel (common groundsel; 16 g ai/ha, preemergence) | Plant response rating, Dayflower (Virginia dayflower) | Plant response rating, Horseweed (Canada horseweed; 16 g ai/ha, preemergence) | Plant response rating, Field Bindweed (field bindweed; 16 g ai/ha, preemergence) | Plant response rating, Mallow (common mallow; 16 g ai/ha, preemergence)
65: Plant response rating, Foxtail, Green (green foxtail; Preemergence, 31 g ai/ha) | Plant response rating, Prickly Sida (prickly sida; Preemergence, 31 g ai/ha) | Plant response rating, Spanishneedles (spanishneedles; Preemergence, 31 g ai/ha)
90: Groundsel plant response rating (common groundsel; 125 g ai/ha, preemergence) | Plant response rating, Crabgrass, Naked (naked crabgrass; 16 g ai/ha, preemergence) | Plant response rating, Crabgrass, Naked (naked crabgrass; Preemergence, 31 g ai/ha) | Itchgrass plant response rating (itchgrass; 62 g ai/ha, Preemergence)
80: Foxtail, Green plant response rating (green foxtail; 62 g ai/ha, Preemergence) | Plant response rating, Johnsongrass (johnsongrass; Preemergence, 31 g ai/ha) | Plant response rating, Guineagrass (guineagrass; Preemergence, 31 g ai/ha) | Groundsel plant response rating (common groundsel; 62 g ai/ha, Preemergence) | Bluegrass plant response rating (annual bluegrass; 62 g ai/ha, Preemergence) | Plant response rating, Mallow (common mallow; Preemergence, 31 g ai/ha)
20: Plant response rating, Foxtail, Green (green foxtail; 16 g ai/ha, preemergence) | Plant response rating, Johnsongrass (johnsongrass; 16 g ai/ha, preemergence) | Plant response rating, Bluegrass (annual bluegrass; 16 g ai/ha, preemergence)
100: Foxtail, Green plant response rating (green foxtail; 125 g ai/ha, preemergence) | Johnsongrass plant response rating (johnsongrass; 62 g ai/ha, Preemergence) | Johnsongrass plant response rating (johnsongrass; 125 g ai/ha, preemergence) | Morningglory plant response rating (pitted morningglory; 125 g ai/ha, preemergence) | Guineagrass plant response rating (guineagrass; 62 g ai/ha, Preemergence) | Guineagrass plant response rating (guineagrass; 125 g ai/ha, preemergence) | Bluegrass plant response rating (annual bluegrass; 125 g ai/ha, preemergence) | Crabgrass, Naked plant response rating (naked crabgrass; 62 g ai/ha, Preemergence) | Crabgrass, Naked plant response rating (naked crabgrass; 125 g ai/ha, preemergence) | Horseweed plant response rating (Canada horseweed; 62 g ai/ha, Preemergence) | Horseweed plant response rating (Canada horseweed; 125 g ai/ha, preemergence) | Plant response rating, Horseweed (Canada horseweed; Preemergence, 31 g ai/ha) | Spanishneedles plant response rating (spanishneedles; preemergence) | Mallow plant response rating (common mallow; 125 g ai/ha, preemergence)
70: Plant response rating, Chickweed (chickweed; 250 g ai/ha) | Plant response rating, Guineagrass (guineagrass; 16 g ai/ha, preemergence) | Plant response rating, Groundsel (common groundsel; Preemergence, 31 g ai/ha) | Plant response rating, Bluegrass (annual bluegrass; Preemergence, 31 g ai/ha)
40: Plant response rating, Barley (winter barley; 250 g ai/ha) | Plant response rating, Purslane (common purslane; Preemergence, 31 g ai/ha)
98: Dallisgrass plant response rating (dallisgrass; 62 g ai/ha, Preemergence) | Dallisgrass plant response rating (dallisgrass; 125 g ai/ha, preemergence) | Sowthistle plant response rating (common sowthistle; preemergence) | Plant response rating, Sowthistle (common sowthistle; Preemergence, 62 g ai/ha) | Itchgrass plant response rating (itchgrass; 125 g ai/ha, preemergence) | Mallow plant response rating (common mallow; 62 g ai/ha, Preemergence)
50: Plant response rating, Itchgrass (itchgrass; 16 g ai/ha, preemergence)
95: Plant response rating, Sowthistle (common sowthistle; Preemergence, 31 g ai/ha) | Prickly Sida plant response rating (prickly sida; 125 g ai/ha, preemergence)
60: Plant response rating, Dallisgrass (dallisgrass; Preemergence, 31 g ai/ha) | Purslane plant response rating (common purslane; 62 g ai/ha, Preemergence)
30: Plant response rating, Spanishneedles (spanishneedles; 16 g ai/ha, preemergence)
15: Plant response rating, Prickly Sida (prickly sida; 16 g ai/ha, preemergence) | Plant response rating, Purslane (common purslane; 16 g ai/ha, preemergence)
10: Plant response rating, Barley (winter barley; 125 g ai/ha)

CCn1nc(C(F)(F)F)c(CS(=O)(=O)c2cc(C)cc[n+]2[O-])c1OCC(F)(F)F [Compound 64]
50: Horseweed plant response rating (Canada horseweed; 62 g ai/ha, Preemergence)
60: Plant response rating, Foxtail, Green (green foxtail; Preemergence, 31 g ai/ha) | Purslane plant response rating (common purslane; 125 g ai/ha, preemergence) | Spanishneedles plant response rating (spanishneedles; preemergence)
80: Plant response rating, Guineagrass (guineagrass; 16 g ai/ha, preemergence) | Groundsel plant response rating (common groundsel; 125 g ai/ha, preemergence)
95: Foxtail, Green plant response rating (green foxtail; 62 g ai/ha, Preemergence)
35: Morningglory plant response rating (pitted morningglory; 125 g ai/ha, preemergence) | Plant response rating, Dallisgrass (dallisgrass; Preemergence, 31 g ai/ha) | Plant response rating, Mallow (common mallow; Preemergence, 31 g ai/ha)
10: Plant response rating, Purslane (common purslane; Preemergence, 31 g ai/ha)
5: Plant response rating, Barley (winter barley; 125 g ai/ha)
100: Foxtail, Green plant response rating (green foxtail; 125 g ai/ha, preemergence) | Johnsongrass plant response rating (johnsongrass; 125 g ai/ha, preemergence) | Guineagrass plant response rating (guineagrass; 62 g ai/ha, Preemergence) | Guineagrass plant response rating (guineagrass; 125 g ai/ha, preemergence) | Sowthistle plant response rating (common sowthistle; preemergence) | Plant response rating, Sowthistle (common sowthistle; Preemergence, 62 g ai/ha) | Crabgrass, Naked plant response rating (naked crabgrass; 62 g ai/ha, Preemergence) | Crabgrass, Naked plant response rating (naked crabgrass; 125 g ai/ha, preemergence) | Horseweed plant response rating (Canada horseweed; 125 g ai/ha, preemergence) | Mallow plant response rating (common mallow; 125 g ai/ha, preemergence)
0: Plant response rating (0 to 100), Barley (winter barley) | Plant response rating, Barley (winter barley; 62 g ai/ha) | Plant response rating (0 to 100), Chickweed (chickweed) | Plant response rating, Chickweed (chickweed; 62 g ai/ha) | Plant response rating, Chickweed (chickweed; 125 g ai/ha) | Plant response rating, Chickweed (chickweed; 250 g ai/ha) | Plant response rating, Johnsongrass (johnsongrass; 16 g ai/ha, preemergence) | Plant response rating, Morningglory (pitted morningglory; 16 g ai/ha, preemergence) | Morningglory plant response rating (pitted morningglory; 62 g ai/ha, Preemergence) | Plant response rating, Morningglory (pitted morningglory; Preemergence, 31 g ai/ha) | Plant response rating, Dallisgrass (dallisgrass; 16 g ai/ha, preemergence) | Plant response rating, Sowthistle (common sowthistle; Preemergence, 31 g ai/ha) | Plant response rating, Prickly Sida (prickly sida; 16 g ai/ha, preemergence) | Plant response rating, Prickly Sida (prickly sida; Preemergence, 31 g ai/ha) | Plant response rating, Purslane (common purslane; 16 g ai/ha, preemergence) | Plant response rating, Groundsel (common groundsel; 16 g ai/ha, preemergence) | Plant response rating, Groundsel (common groundsel; Preemergence, 31 g ai/ha) | Plant response rating, Dayflower (Virginia dayflower) | Plant response rating, Bluegrass (annual bluegrass; 16 g ai/ha, preemergence) | Plant response rating, Bluegrass (annual bluegrass; Preemergence, 31 g ai/ha) | Plant response rating, Itchgrass (itchgrass; 16 g ai/ha, preemergence) | Plant response rating, Horseweed (Canada horseweed; 16 g ai/ha, preemergence) | Plant response rating, Horseweed (Canada horseweed; Preemergence, 31 g ai/ha) | Plant response rating, Field Bindweed (field bindweed; 16 g ai/ha, preemergence) | Field Bindweed plant response rating (field bindweed; 62 g ai/ha, Preemergence) | Plant response rating, Field Bindweed (field bindweed; Preemergence, 31 g ai/ha) | Plant response rating, Mallow (common mallow; 16 g ai/ha, preemergence)
90: Johnsongrass plant response rating (johnsongrass; 62 g ai/ha, Preemergence) | Dallisgrass plant response rating (dallisgrass; 125 g ai/ha, preemergence) | Bluegrass plant response rating (annual bluegrass; 62 g ai/ha, Preemergence) | Bluegrass plant response rating (annual bluegrass; 125 g ai/ha, preemergence)
15: Plant response rating, Foxtail, Green (green foxtail; 16 g ai/ha, preemergence) | Groundsel plant response rating (common groundsel; 62 g ai/ha, Preemergence)
20: Plant response rating, Barley (winter barley; 250 g ai/ha)
98: Plant response rating, Guineagrass (guineagrass; Preemergence, 31 g ai/ha)
30: Prickly Sida plant response rating (prickly sida; 62 g ai/ha, Preemergence) | Purslane plant response rating (common purslane; 62 g ai/ha, Preemergence) | Plant response rating, Crabgrass, Naked (naked crabgrass; 16 g ai/ha, preemergence) | Itchgrass plant response rating (itchgrass; 62 g ai/ha, Preemergence) | Plant response rating, Itchgrass (itchgrass; Preemergence, 31 g ai/ha) | Plant response rating, Spanishneedles (spanishneedles; 16 g ai/ha, preemergence)
75: Plant response rating, Johnsongrass (johnsongrass; Preemergence, 31 g ai/ha) | Prickly Sida plant response rating (prickly sida; 125 g ai/ha, preemergence) | Itchgrass plant response rating (itchgrass; 125 g ai/ha, preemergence) | Mallow plant response rating (common mallow; 62 g ai/ha, Preemergence)
70: Dallisgrass plant response rating (dallisgrass; 62 g ai/ha, Preemergence)
40: Plant response rating, Crabgrass, Naked (naked crabgrass; Preemergence, 31 g ai/ha) | Field Bindweed plant response rating (field bindweed; 125 g ai/ha, preemergence) | Plant response rating, Spanishneedles (spanishneedles; Preemergence, 62 g ai/ha)
